According to US4513008A, “Virucidal compositions and therapy” (The Vinoxen Company, Inc., priority 1982, dated 1985):
In brackets after ≈: the same amount, converted by molar mass.

Tested on: herpes simplex virus type 2 (HSV-2)
Test: In vitro HSV-2 bioassay: virucidal plaque assay (HEP-2 cells)
Format: cell-based, HSV-2 strain 333
Conditions: for MIC: Human alphaherpesvirus 2, 0.5 h, Table 4 run, 30 min at 25° C., upper limit, dilutions to 1:12800, read-out: MIC (lowest concentration producing a 3-log reduction in virus titer); for virucidal activity against HSV-2 in words: in vitro bioassay
Description: Evidence of the efficacy of the virucides of the invention in vitro has been obtained from bioassay using HSV-2, using a standard assay procedure. Serial dilutions of the compounds were tested for their ability to prevent plaque formation by a stock virus suspension. Reduction of plaque titer by test compounds as compared to mock treated controls was indicative of virucidal activity. […] These represent the upper limit for the drug concentration, since dilutions were not carried beyond 1:6400 and in some cases 1:12800.
Cell Culture. Cell cultures used for the propagation and titration of HSV-2 were the human diploid lung embryonic line MRC-5 and the human malignant epitheloid cell line HEP-2 respectively. Stock monolayer cultures of both cell lines were propagated in Dulbecco's Modified Eagle's medium (DME) supplemented with 10% (V/V) calf serum. Spinner cultures for mass production of HEP-2 cells were grown in Joklik's medium supplemented with 10% (V/V) calf serum and 1% (W/V) pluronic acid. Monolayer cultures of HEP-2 cells for plaque or virucidal assay were seeded into 60 mm dishes in DME supplemented with 10% calf serum and antibiotics. Stock cultures were maintained in antibiotic free medium.
Herpes simplex virus, type 2 (HSV-2) strain 333 was obtained from Dr. John Hughes of the Dept. of Medical Microbiology, College of Medicine, The Ohio State University. Stocks of HSV-2 were prepared in the human diploid embryonic lung cell line, MRC-5. Confluent MRC-5 monolayer cultures in T-75 plastic flasks were washed one time with Hank's and Balanced Salt solution (HBSS) and infected with 0.5 ml of HSV-2, strain 333 stock. Virus was adsorbed for 1 hour at 37° C. Then the culture was refed with 15 ml of DME supplemented with 1% (V/V) calf serum. Virus was harvested 48 hours later when cytopathology was complete. Cultures were frozen and thawed rapidly three times to release cell associated virus, clarified by centrifugation at 10,000×g for 15 minutes at 4° C., aliquoted into 5 ml lots and frozen at -70° C. One lot was taken for virus titration.
HSV-2 was titrated by plaque assay in HEP-2 cells under a semi-solid methyl cellulose overlay. Tenfold serial dilutions of virus were prepared in HBSS and 0.3 ml aliquots of each dilution inoculated onto triplicate HEP-2 cell monolayers in 60 mm plastic petri dishes. Adsorption of virus was for 1 hour at 37° C. Plates were then overlayed with 5 ml of a 1:1 mixture of 2×DME supplemented with 2% (V/V) calf serum and 3% (W/V) methyl cellulose to give a final 1×DME supplemented with 1% calf serum and 1.5% methylcellulose. Infected plates were incubated at 37° C. in a humidified 10% CO2 atmosphere for 48 hours. Virus plaques were visualized by staining with crystal violet and counted under a dissecting microscope. Virus titers were calculated from the plaque numbers by averaging the plaque count and multiplying by 3.3 (0.3 ml plates).
The following procedure was employed to assay virucidal activity in various test samples. Compounds were received as a solution in DMSO and were serially diluted in HBSS as described for each experiment. For the test, 1 ml of each dilution was mixed with 1 ml of a stock virus suspension diluted to approximately 9×10^3 plaque forming units (P.F.U.)/ml. This test mixture was incubated at 25° C. for 30 minutes, then inoculated onto a cell culture (HEP-2) for plaque assay as described previously. Mock treated (virus plus HBSS) controls were included with each test. Any reduction of plaque titer by test compounds as compared to the mock treated control was indicative of virucidal activity.
Samples from RP-HPLC fractionation of the CLOH, produced according to Example 2, as well as purified samples of palmitic, myristic and oleic acids and Vitamin D2, were tested for HSV-2 bioactivity. […] Pure oleic acid was not active in this assay, nor were palmitic and myristic acids and Vitamin D2. […]

[1] = Table 3, dilution 1:10, control titer 4.5 × 10^3
[2] = Table 3, dilution 1:400, TNTC = too numerous to count
[3] = Table 3, dilution 1:800, TNTC = too numerous to count
[4] = Table 3, dilution 1:1600, TNTC = too numerous to count
[5] = Table 3, dilution 1:3200, TNTC = too numerous to count
[6] = Table 3, dilution 1:6400, TNTC = too numerous to count
[7] = Table 3, dilution 1:12800, TNTC = too numerous to count
[8] = Table 1, dilution 1:10, TNTC = too numerous to count
[9] = Table 1, dilution 1:100, TNTC = too numerous to count
[10] = Table 1, dilution 1:200, TNTC = too numerous to count
[11] = Table 1, dilution 1:400, TNTC = too numerous to count
[12] = Table 1, dilution 1:800, TNTC = too numerous to count
[13] = Table 1, dilution 1:1600, TNTC = too numerous to count
[14] = Table 1, dilution 1:3200, TNTC = too numerous to count
[15] = Table 1, dilution 1:6400, TNTC = too numerous to count

SMILES	plaque count (Table 3, dilution 1:10)	titer [1]	plaque count (Table 3, dilution 1:100)	titer (Table 3, dilution 1:100)	titer (Table 3, dilution 1:400)	plaque count [2]	titer (Table 3, dilution 1:800)	plaque count [3]	titer (Table 3, dilution 1:1600)	plaque count [4]	titer (Table 3, dilution 1:3200)	plaque count [5]	titer (Table 3, dilution 1:6400)	plaque count [6]	titer (Table 3, dilution 1:12800)	plaque count [7]	plaque count [8]	plaque count [9]	plaque count [10]	plaque count [11]	other results
CCC=CCC=CCC=CCC=CCC=CCC=CCCC(=O)OC [DHA--ME, docasahexaenoic acid, methyl ester]	95	3.1 × 10^2	293	9.7 × 10^2	TNTC	TNTC	TNTC	TNTC	TNTC	TNTC	TNTC	TNTC	TNTC	TNTC	TNTC	TNTC					
CC/C=C\C/C=C\C/C=C\C/C=C\C/C=C\CCCC(=O)O [EPA, eicosapentaenoic acid]	0	0	0.5	1.7 × 10^0	1.7 × 10^0	0.5	1.7 × 10^0	0.5	1.7 × 10^0	0.5	1.7 × 10^0	0.5	1.7 × 10^0	0.5	1.7 × 10^0	0.5					MIC: 0.37 µg/mL (≈ 1.22 µM)
CCC=CCC=CCC=CCC=CCC=CCCCC(=O)OC [EPA--ME, eicosapentaenoic acid, methyl ester]	0	0	2.5	8.3 × 10^0	2.5 × 10^1	7.5	4.5 × 10^1	13.5	6.4 × 10^1	19.5	1.4 × 10^2	42.5	1.2 × 10^2	36.5	2.2 × 10^2	66					MIC: 540 µg/mL (≈ 1710 µM)
CCCCCCCCCCCCCC(=O)O [Myristic acid, reference compound]																	TNTC	TNTC	TNTC	TNTC	plaque count [12]: TNTC; plaque count [13]: TNTC; plaque count [14]: TNTC; plaque count [15]: TNTC; virucidal activity against HSV-2 in words: not active
C=C1CC[C@H](O)C/C1=C/C=C1\CCC[C@]2(C)[C@@H]([C@H](C)/C=C/[C@H](C)C(C)C)CC[C@@H]12 [Vitamin D2, reference compound]																	TNTC	TNTC	TNTC	TNTC	plaque count [12]: TNTC; plaque count [13]: TNTC; plaque count [14]: TNTC; plaque count [15]: TNTC; virucidal activity against HSV-2 in words: not active
CCCCCCCCCCCCCCCC(=O)O [Palmitic acid, reference compound]																	TNTC	TNTC	TNTC	TNTC	plaque count [12]: TNTC; plaque count [13]: TNTC; plaque count [14]: TNTC; plaque count [15]: TNTC; virucidal activity against HSV-2 in words: not active
